In US8691577B2, “Somatic embryogenesis of Jatropha curcas from ovules” (Joil (S) Pte Ltd., priority 2008, dated 2014):
Entries after “also recorded” stand apart in the source; their conditions may differ.

Legend:
[1] = test system: embryogenic callus from ovules of Jatropha curcas; assay: Somatic embryo development and maturation from embryogenic callus; type: cell-based
Procedure: (§1) The sterilized flower buds were dissected using stereo microscope and the ovules were isolated and injured using dissection needle. The injured ovule explants were inoculated onto initiation medium supplemented with different phytohormones and incubated in dark for 40 days. The callus induced from these ovules was transferred to the fresh initiation medium and cultured in the light (16/8 h (light/dark) photoperiod period, light intensity of 25 μE m^−2s^−1) for somatic embryo development and maturation. The callus with developing and maturing somatic embryos were subcultured every two weeks. The mature cotyledon shaped somatic embryos that developed from this embryogenic callus were transferred to germination medium for germination. The germinating somatic embryos were subcultured every two weeks. The germinated plantlets were hardened and transferred to green house. All cultures were maintained at 25° C.±2° C. with 55%-60% relative humidity. Approximately 12-15 mature cotyledon shaped embryos were developed per 100 mg of embryogenic callus, and 95% of the somatic embryos were developed.
Induction of callus occurred in MS medium containing different auxins and cytokinins individually as well as in combinations.

[2] = test system: ovule explants of Jatropha curcas; assay: Induction of embryogenic callus from ovule explants on MS initiation medium; type: cell-based
Text: (§2) The initiation medium was MS basal medium (MS mineral salts and vitamins) supplemented with sucrose (3%) as the carbon source and included phytoagar (0.8%) as a gelling agent. The pH of the medium was 5.8. The germination medium was MS basal medium supplemented with sucrose (3%) as the carbon source and included phytogel (0.25%) as a gelling agent. The pH of the medium was 5.8. The media were dispensed into sterilized Petri dish (90×15 mm size, plastic polycarbonate, Canada). The chemicals used for media preparations were of analytical grade (Duchefa Biochemie, Haarlem, The Netherlands and Sigma Aldrich, Inc., St Louis, USA).
Different hormones were added to the media for the development of the method according to the present invention. In general, the media contained a reduced concentration of phytohormones. The hormones that were tested in the media were phytohormones that will affect growth in the desired manner during different stages of tissue culture. Examples of phytohormones that were tested include natural or synthetic auxin (2,4-D, indole-3-acetic acid (IAA), IBA), cytokinin (BA, KN,), GA3, or cytokinin-active urea derivatives (such as TDZ). The hormones were tested singly or in combination. For induction of embryogenic callus, only 2,4-D (2.26, 4.52, 6.78 and 9.02 μM) was effective.
as §1

[3] = test system: leaf explants of J. curcas; conditions: Jha et al. (2007), cited from earlier work
[4] = test system: mature somatic embryos of Jatropha curcas; assay: Germination of somatic embryos and growth of plantlets on MS germination medium; type: cell-based; conditions: for growth of germinated plantlets: added to germination medium (MS with IBA and GA3); for germination of somatic embryos: auxin in combination with GA3 (0.72, 1.44, 2.88, 5.76 μM) in MS medium, IBA 1.23-4.92 μM, IAA 1.42-8.56 μM, NAA 1.34-8.04 μM
Text: as §2, §1

[5] = test system: embryogenic callus of Jatropha curcas; assay: Production of double haploid plantlets by treating embryogenic callus with a mitotic inhibitor; type: cell-based
Procedure: Double haploid plants are produced by treating the embryogenic callus with a mitotic inhibitor. In one embodiment, the embryogenic callus is treated with the mitotic inhibitor for one day to three days, preferably three days. In one embodiment, the mitotic inhibitor is colchicine. In one embodiment, the embryogenic callus is treated with 0.1% to 0.5%, preferably 0.5% colchicine. In another embodiment, the mitotic inhibitor is oryzalin. In one embodiment, the embryogenic callus is treated with 0.1% to 0.5%, preferably 0.5% oryzalin. The mitotic inhibitor is added to the embryogenic callus induction medium, described above, prior to transfer of the embryogenic callus to the fresh initiation medium. The culture conditions for culturing in the presence of the mitotic inhibitor is the same as for somatic embryogenic callus induction. Following treatment with the mitotic inhibitor, the treated embryogenic callus is placed on fresh initiation medium for the development and maturation of somatic embryos and cultured as described above. The mature somatic embryos are placed on the germination medium and cultured as described above to germinate double haploid plantlets as described above.
Embryogenic callus prepared as described in Example 5 which is above to develop into somatic embryos (after forty days of embryogenic callus induction) was treated with different concentration of colchicines (0.1-1%) for three-days. The culture condition (temperature, photoperiod and light) are same as described above. After the colchicine treatment, the treated embryogenic callus was transferred to fresh initiation medium (MS medium containing 2,4-D (6.78 μM)) and cultured as described in Example 5 for the development of somatic embryos. The mature somatic embryos were transferred to germination media (MS medium fortified with GA3 and IBA) and cultured as described in Example 5 for plantlet development.

[6] = hormone alone in MS initiation medium, 2,4-D 2.26, 4.52, 6.78, 9.02 μM, IAA 0.71-5.70 μM, IBA 0.615-4.92 μM

O=C(O)COc1ccc(Cl)cc1Cl [2,4-D, 2,4-dichlorophenoxyacetic acid]
somatic embryo development (globular, heart, torpedo and cotyledon-shaped) ([1]; MS medium containing 2,4-D): effective | outcome of continuous culture of somatic embryos ([1]; continuous culture in MS medium containing 2,4-D): abnormal somatic embryo formation without germination | induction of embryogenic callus ([2]; MS medium supplemented with 2,4-D, dark conditions): induced embryogenic callus; also recorded: vital | induction of embryogenic callus ([2]; MS medium supplemented with 2,4-D, in the presence of light): not result in the induction of embryogenic callus | induction of embryogenic callus [2, 6]: effective in inducing embryogenic callus

Nc1ncnc2nc[nH]c12.O=S(=O)(O)O [AdSO4, adenine sulphate]
type of callus induced ([2]; addition to callus induction medium): induction of greenish compact callus that becomes non-embryogenic | effect on somatic embryo development ([3]; 13.6 μM added): stimulated the process of somatic embryo development | growth of germinated plantlets ([4]; sulphate): enhanced the growth of germinated plantlets

c1ccc(CNc2ncnc3nc[nH]c23)cc1 [BA, 6-benzylaminopurine]
growth of germinated plantlets [4]: enhanced the growth of germinated plantlets

O=C(O)Cc1c[nH]c2ccccc12 [IAA, indole-3-acetic acid]
induction of embryogenic callus [2, 6]: induced only non-embryogenic callus | germination of somatic embryos [4]: not effective

O=C(O)CCCc1c[nH]c2ccccc12 [IBA, indole-3-butyric acid]
induction of embryogenic callus [2, 6]: induced only non-embryogenic callus | germination of somatic embryos [4]: effective; also recorded: occurred

c1coc(CNc2ncnc3[nH]cnc23)c1 [KN, kinetin]
development of somatic embryos ([3]; MS medium with KN 2.3 μM and IBA 1.0 μM): developed | induction of embryogenic callus from leaf explants ([3]; MS medium with KN 9.3 μM): induced | growth of germinated plantlets [4]: enhanced the growth of germinated plantlets

O=C(O)Cc1cccc2ccccc12 [NAA]
germination of somatic embryos [4]: not effective

O=C(Nc1ccccc1)Nc1cnns1 [TDZ, thidiazuron]
growth of germinated plantlets [4]: enhanced the growth of germinated plantlets

COc1cc2c(c(OC)c1OC)-c1ccc(OC)c(=O)cc1[C@@H](NC(C)=O)CC2 [colchicines, colchicine]
most effective concentration for production of double haploid plantlets ([5]; 0.1-1% tested, three days treatment of embryogenic callus): 0.5% | effect on callus at higher concentration ([5]; concentration above 0.5%): callus become brown and died | morphological characters of treated plantlets ([5]; plantlets from treated embryogenic callus): like double haploid
